Assay results published in patent publication US7674819B2 (Warner-Lambert Company LLC, priority 2005, dated 2010).

biological target: T1, hAR (Homo sapiens, UniProt P10275); assay: Competitive binding of 3H-DHT to baculovirus/Sf9 generated hAR extracts; settings: IC50, concentration at which one half of maximum binding of 1 nM 3H-DHT to hAR is inhibited; one hour at 4° C.; mean of multiple tests
T1 sequence (P10275 1-920): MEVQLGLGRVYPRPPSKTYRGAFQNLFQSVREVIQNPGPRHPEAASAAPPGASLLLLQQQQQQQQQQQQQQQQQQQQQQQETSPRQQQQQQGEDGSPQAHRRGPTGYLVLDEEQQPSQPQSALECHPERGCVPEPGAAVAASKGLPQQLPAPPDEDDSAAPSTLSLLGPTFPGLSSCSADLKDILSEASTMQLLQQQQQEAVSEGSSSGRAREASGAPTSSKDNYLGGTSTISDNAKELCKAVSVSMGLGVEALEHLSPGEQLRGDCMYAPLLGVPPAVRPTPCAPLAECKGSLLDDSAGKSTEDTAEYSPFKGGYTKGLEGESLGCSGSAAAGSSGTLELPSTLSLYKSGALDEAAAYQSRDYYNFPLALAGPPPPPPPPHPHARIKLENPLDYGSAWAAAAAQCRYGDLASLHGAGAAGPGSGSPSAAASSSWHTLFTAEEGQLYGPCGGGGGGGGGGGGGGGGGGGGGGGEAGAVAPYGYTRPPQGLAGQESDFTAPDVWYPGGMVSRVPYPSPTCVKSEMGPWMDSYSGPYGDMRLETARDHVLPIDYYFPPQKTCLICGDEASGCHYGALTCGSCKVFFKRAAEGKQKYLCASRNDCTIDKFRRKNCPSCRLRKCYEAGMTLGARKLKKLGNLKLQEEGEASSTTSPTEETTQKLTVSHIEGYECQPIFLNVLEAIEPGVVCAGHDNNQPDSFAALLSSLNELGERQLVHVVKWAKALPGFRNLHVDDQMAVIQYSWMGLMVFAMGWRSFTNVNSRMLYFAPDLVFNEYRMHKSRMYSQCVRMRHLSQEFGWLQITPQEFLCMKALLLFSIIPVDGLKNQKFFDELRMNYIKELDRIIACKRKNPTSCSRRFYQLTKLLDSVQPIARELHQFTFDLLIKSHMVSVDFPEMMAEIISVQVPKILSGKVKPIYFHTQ
Experimental: The description below describes how the assay was carried out.
Competitive binding analysis was performed on baculovirus/Sf9 generated hAR extracts in the presence or absence of different concentrations of test agent and a fixed concentration of ^3H-dihydrotestosterone (^3H-DHT) as tracer. This binding assay method is a modification of a protocol previously described (Liao S., et. al. J. Steroid Biochem. 20:11-17 1984). Briefly, progressively decreasing concentrations of compounds are incubated in the presence of hAR extract (Chang et al. P.N.A.S. Vol. 89, pp. […], 1992), hydroxylapatite, and 1 nM^3H-DHT for one hour at 4° C. Subsequently, the binding reactions are washed three times to completely remove excess unbound ^3H-DHT. hAR bound ^3H-DHT levels are determined in the presence of compounds (i.e. competitive binding) and compared to levels bound when no competitor is present (i.e. maximum binding). Compound binding affinity to the hAR is expressed as the concentration of compound at which one half of the maximum binding is inhibited.

Question: Which IC50 does the source give for CC(c1nnc(-c2ccccc2)o1)N1CC(C)(C)C(Oc2ccc(C#N)c(C(F)(F)F)c2)C1=O (stereo not shown) [Example 128, 4-[4,4-Dimethyl-2-oxo-1-[1-(5-phenyl-[1,3,4]oxadiazol-2-yl)-ethyl]-pyrrolidin-3-yloxy]-2-trifluoromethyl-benzonitrile] here?
Answer: The IC50 was 0.082 µM.

Question: For Cc1ccc(-c2nnc(C(C)N3CC(C)(C)C(Oc4ccc(C#N)c(C(F)(F)F)c4)C3=O)o2)cc1 (stereo not shown) [Example 129, 4-[4,4-Dimethyl-2-oxo-1-[1-(5-p-tolyl-[1,3,4]oxadiazol-2-yl)-ethyl]-pyrrolidin-3-yloxy]-2-trifluoromethyl-benzonitrile], which IC50 is on record?
Answer: Its IC50 is 0.063 µM.

Question: For CC(c1nnc(-c2ccc(O)cc2O)o1)N1CC(C)(C)C(Oc2ccc(C#N)c(C(F)(F)F)c2)C1=O (stereo not shown) [Example 132, 4-(1-{1-[5-(2,4-dihydroxy-phenyl)-[1,3,4]oxadiazol-2-yl]-ethyl}-4,4-dimethyl-2-oxo-pyrrolidin-3-yloxy)-2-trifluoromethyl-benzonitrile], which IC50 is on record?
Answer: The IC50 was 0.052 µM.

Question: How did the IC50 turn out when COc1ccccc1-c1nnc(C(C)N2CC(C)(C)C(Oc3ccc(C#N)c(C(F)(F)F)c3)C2=O)o1 (stereo not shown) [Example 133, 4-(1-{1-[5-(2-methoxy-phenyl)-[1,3,4]oxadiazol-2-yl]-ethyl}-4,4-dimethyl-2-oxo-pyrrolidin-3-yloxy)-2-trifluoromethyl-benzonitrile] was run?
Answer: Its IC50 is 0.06 µM.

Question: With COc1cccc(-c2nnc(C(C)N3CC(C)(C)C(Oc4ccc(C#N)c(C(F)(F)F)c4)C3=O)o2)c1 (stereo not shown) [Example 134, 4-(1-{1-[5-(3-methoxy-phenyl)-[1,3,4]oxadiazol-2-yl]-ethyl}-4,4-dimethyl-2-oxo-pyrrolidin-3-yloxy)-2-trifluoromethyl-benzonitrile] as the compound, how does the IC50 read?
Answer: Its IC50 is 0.076 µM.

Question: For COc1ccc(-c2nnc(C(C)N3CC(C)(C)C(Oc4ccc(C#N)c(C(F)(F)F)c4)C3=O)o2)cc1 (stereo not shown) [Example 135, 4-(1-{1-[5-(4-methoxy-phenyl)-[1,3,4]oxadiazol-2-yl]-ethyl}-4,4-dimethyl-2-oxo-pyrrolidin-3-yloxy)-2-trifluoromethyl-benzonitrile], which IC50 is on record?
Answer: The IC50 was 0.044 µM.

same assay, conditions: concentration at which one half of maximum binding of 1 nM 3H-DHT to hAR is inhibited; one hour at 4° C.; mean of multiple tests; read-out: IC50

Question: With Cc1n[nH]c(C)c1S(=O)(=O)N1CC(C)(C)C(Oc2ccc(C#N)c(C(F)(F)F)c2)C1=O (stereo not shown) [Example 77, 4-[1-(3,5-Dimethyl-1H-pyrazole-4-sulfonyl)-4,4-dimethyl-2-oxo-pyrrolidin-3-yloxy]-2-trifluoromethyl-benzonitrile] as the compound, how does the IC50 read?
Answer: Its IC50 is 0.246 µM.

Question: CC(C)S(=O)(=O)N1CC(C)(C)C(Oc2ccc(C#N)c(C(F)(F)F)c2)C1=O (stereo not shown) [Example 79, 4-[4,4-Dimethyl-2-oxo-1-(propane-2-sulfonyl)-pyrrolidin-3-yloxy]-2-trifluoromethyl-benzonitrile] was tested. Which IC50 did it give?
Answer: Its IC50 is 0.305 µM.

Question: Which IC50 does the source give for Cc1ccc(S(=O)(=O)N2CC(C)(C)C(Oc3ccc(C#N)c(C(F)(F)F)c3)C2=O)s1 (stereo not shown) [Example 85, 4-[4,4-Dimethyl-1-(5-methyl-thiophene-2-sulfonyl)-2-oxo-pyrrolidin-3-yloxy]-2-trifluoromethyl-benzonitrile] here?
Answer: The IC50 was 0.233 µM.

Question: For Cc1nc(C)c(S(=O)(=O)N2CC(C)(C)C(Oc3ccc(C#N)c(C(F)(F)F)c3)C2=O)s1 (stereo not shown) [Example 89, 4-[1-(2,4-Dimethyl-thiazole-5-sulfonyl)-4,4-dimethyl-2-oxo-pyrrolidin-3-yloxy]-2-trifluoromethyl-benzonitrile], which IC50 is on record?
Answer: The IC50 was 0.281 µM.

Question: How did the IC50 turn out when CCCCS(=O)(=O)N1CC(C)(C)C(Oc2ccc(C#N)c(C(F)(F)F)c2)C1=O (stereo not shown) [Example 90, 4-[1-(Butane-1-sulfonyl)-4,4-dimethyl-2-oxo-pyrrolidin-3-yloxy]-2-trifluoromethyl-benzonitrile] was run?
Answer: Its IC50 is 0.309 µM.

Question: Which IC50 does the source give for CC1(C)CN(S(=O)(=O)c2ccccc2C#N)C(=O)C1Oc1ccc(C#N)c(C(F)(F)F)c1 (stereo not shown) [Example 91, 4-[1-(2-Cyano-benzenesulfonyl)-4,4-dimethyl-2-oxo-pyrrolidin-3-yloxy]-2-trifluoromethyl-benzonitrile] here?
Answer: Its IC50 is 0.508 µM.

Question: Which IC50 does the source give for Cc1cc(S(=O)(=O)N2CC(C)(C)C(Oc3ccc(C#N)c(C(F)(F)F)c3)C2=O)c(C)s1 (stereo not shown) [Example 92, 4-[1-(2,5-Dimethyl-thiophene-3-sulfonyl)-4,4-dimethyl-2-oxo-pyrrolidin-3-yloxy]-2-trifluoromethyl-benzonitrile] here?
Answer: The IC50 was 0.334 µM.

Question: With COC(=O)c1ccc(S(=O)(=O)N2CC(C)(C)C(Oc3ccc(C#N)c(C(F)(F)F)c3)C2=O)o1 (stereo not shown) [Example 100A, 5-[3-(4-Cyano-3-trifluoromethyl-phenoxy)-4,4-dimethyl-2-oxo-pyrrolidine-1-sulfonyl]-furan-2-carboxylic acid methyl ester] as the compound, how does the IC50 read?
Answer: The IC50 was 0.242 µM.

Question: For COc1cc(OC2C(=O)N(S(C)(=O)=O)CC2(C)C)ccc1C#N (stereo not shown) [Example 100D, 4-(1-Methanesulfonyl-4,4-dimethyl-2-oxo-pyrrolidin-3-yloxy)-2-methoxy-benzonitrile], which IC50 is on record?
Answer: The IC50 was 0.555 µM.

Question: How did the IC50 turn out when CCC(CC)C(=O)N1CC(C)(C)C(Oc2ccc(C#N)c(C(F)(F)F)c2)C1=O (stereo not shown) [Example 100E, 4-[1-(2-Ethyl-butyryl)-4,4-dimethyl-2-oxo-pyrrolidin-3-yloxy]-2-trifluoromethyl-benzonitrile] was run?
Answer: Its IC50 is 0.372 µM.

Question: CC1(C)CN(C2CCC2)C(=O)C1Oc1ccc(C#N)c(C(F)(F)F)c1 (stereo not shown) [Example 100F, 4-(1-Cyclobutyl-4,4-dimethyl-2-oxo-pyrrolidin-3-yloxy)-2-trifluoromethyl-benzonitrile] was tested. Which IC50 did it give?
Answer: Its IC50 is 0.243 µM.

Question: With CCCC(=O)N1CC(C)(C)C(Oc2ccc(C#N)c(C(F)(F)F)c2)C1=O (stereo not shown) [Example 102, 4-(1-Butyryl-4,4-dimethyl-2-oxo-pyrrolidin-3-yloxy)-2-trifluoromethyl-benzonitrile] as the compound, how does the IC50 read?
Answer: The IC50 was 0.418 µM.

Question: Which IC50 does the source give for Cc1noc(C)c1C(=O)N1CC(C)(C)C(Oc2ccc(C#N)c(C(F)(F)F)c2)C1=O (stereo not shown) [Example 106, 4-[1-(3,5-Dimethyl-isoxazole-4-carbonyl)-4,4-dimethyl-2-oxo-pyrrolidin-3-yloxy]-2-trifluoromethyl-benzonitrile] here?
Answer: Its IC50 is 0.342 µM.

Question: CC1(C)CN(C(=O)c2cccs2)C(=O)C1Oc1ccc(C#N)c(C(F)(F)F)c1 (stereo not shown) [Example 108, 4-[4,4-Dimethyl-2-oxo-1-(thiophene-2-carbonyl)-pyrrolidin-3-yloxy]-2-trifluoromethyl-benzonitrile] was tested. Which IC50 did it give?
Answer: The IC50 was 0.37 µM.

Question: Which IC50 does the source give for Cc1ccccc1-c1nnc(CN2CC(C)(C)C(Oc3ccc(C#N)c(C(F)(F)F)c3)C2=O)o1 (stereo not shown) [Example 111, 4-[4,4-Dimethyl-2-oxo-1-(5-o-tolyl-[1,3,4]oxadiazol-2-ylmethyl)-pyrrolidin-3-yloxy]-2-trifluoromethyl-benzonitrile] here?
Answer: Its IC50 is 0.239 µM.

Question: How did the IC50 turn out when CC1(C)CN(Cc2nnc(-c3cccc(Cl)c3)o2)C(=O)C1Oc1ccc(C#N)c(C(F)(F)F)c1 (stereo not shown) [Example 120, 4-{1-[5-(3-Chloro-phenyl)-[1,3,4]oxadiazol-2-ylmethyl]-4,4-dimethyl-2-oxo-pyrrolidin-3-yloxy}-2-trifluoromethyl-benzonitrile] was run?
Answer: The IC50 was 0.347 µM.

Question: Which IC50 does the source give for Cc1cccc(-c2nnc(CN3CC(C)(C)C(Oc4ccc(C#N)c(C(F)(F)F)c4)C3=O)o2)c1 (stereo not shown) [Example 122, 4-[4,4-Dimethyl-2-oxo-1-(5-m-tolyl-[1,3,4]oxadiazol-2-ylmethyl)-pyrrolidin-3-yloxy]-2-trifluoromethyl-benzonitrile] here?
Answer: Its IC50 is 0.271 µM.

Question: CCOc1cccc(-c2nnc(CN3CC(C)(C)C(Oc4ccc(C#N)c(C(F)(F)F)c4)C3=O)o2)c1 (stereo not shown) [Example 124, 4-{1-[5-(3-Ethoxy-phenyl)-[1,3,4]oxadiazol-2-ylmethyl]-4,4-dimethyl-2-oxo-pyrrolidin-3-yloxy}-2-trifluoromethyl-benzonitrile] was tested. Which IC50 did it give?
Answer: The IC50 was 0.404 µM.

Question: CC1(C)CN(Cc2nnc(-c3ccc(Cl)cc3)o2)C(=O)C1Oc1ccc(C#N)c(C(F)(F)F)c1 (stereo not shown) [Example 125, 4-{1-[5-(4-Chloro-phenyl)-[1,3,4]oxadiazol-2-ylmethyl]-4,4-dimethyl-2-oxo-pyrrolidin-3-yloxy}-2-trifluoromethyl-benzonitrile] was tested. Which IC50 did it give?
Answer: The IC50 was 0.25 µM.
